Data: patent publication US20210317140A1, “Heterocyclic Compounds and Methods of Use” (MEDIVATION TECHNOLOGIES, INC, priority 2013, published 2021)

How the values were obtained:
[1] = target: T1, BTK (Homo sapiens, UniProt Q06187); experiment: BTK kinase assay (HotSpot, 33P ATP); format: biochemical; settings: for IC50: 10 dose IC50, 10 μM ATP; for BTK @ 0.01 μM (% Inh): 0.01 μM compound; for BTK @ 0.01 μM (% Inh) / BTK @ 0.1 μM (% Inh) / BTK @ 1 μM (% Inh): 10 μM ATP; for BTK @ 0.1 μM (% Inh): 0.1 μM compound; for BTK @ 1 μM (% Inh): 1 μM compound
T1 construct: purchased Reaction Biology Corporation
Summary of the method: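 In 20 mM Hepes (pH 7.5) with 10 mM MgCl2, 1 mM EGTA, 0.1 mM Na3VO4, 2 mM DTT, 0.02% Brij35, 0.02 mg/mL BSA and 1% DMSO, kinase and substrate were exposed to ten compound doses for 15–20 min.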

[2] = target: T2, ITK (Homo sapiens, UniProt Q08881); experiment: ITK kinase profiling (BTK protocol); format: biochemical; settings: for IC50: 10 dose IC50; for ITK @ 0.3 μM (% Inh): 0.3 μM compound
T2 construct: purchased Reaction Biology Corporation
T2 sequence (Q08881 1-620): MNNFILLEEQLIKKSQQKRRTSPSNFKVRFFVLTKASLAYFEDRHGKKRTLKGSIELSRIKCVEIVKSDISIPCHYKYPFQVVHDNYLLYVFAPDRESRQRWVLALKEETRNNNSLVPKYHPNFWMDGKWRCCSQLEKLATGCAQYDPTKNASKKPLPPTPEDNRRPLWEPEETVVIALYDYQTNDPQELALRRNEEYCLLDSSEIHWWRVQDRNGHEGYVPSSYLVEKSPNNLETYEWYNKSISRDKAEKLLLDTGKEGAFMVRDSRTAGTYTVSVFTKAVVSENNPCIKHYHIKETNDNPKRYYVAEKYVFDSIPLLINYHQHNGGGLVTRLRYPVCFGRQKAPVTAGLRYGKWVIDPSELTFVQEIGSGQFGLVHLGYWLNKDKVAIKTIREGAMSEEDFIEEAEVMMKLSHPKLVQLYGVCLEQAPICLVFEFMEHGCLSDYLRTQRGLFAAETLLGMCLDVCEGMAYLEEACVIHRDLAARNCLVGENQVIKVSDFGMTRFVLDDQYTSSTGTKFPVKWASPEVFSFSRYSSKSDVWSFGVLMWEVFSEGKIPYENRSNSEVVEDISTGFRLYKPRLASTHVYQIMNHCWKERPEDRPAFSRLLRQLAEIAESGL
Procedure: BTK assay: In vitro profiling protein kinases was performed using the “HotSpot” assay platform. Briefly, specific kinase/substrate pairs along with required cofactors were prepared in reaction buffer. Compounds were prepared as 10 mM stock solutions in DMSO. Compounds were delivered into the reaction, followed 15-20 minutes later by addition of a mixture of ATP (Sigma, St. Louis Mo.) and ^33P ATP (Perkin Elmer, Waltham Mass.) to a final concentration of 10 μM. […] IC50 values and curve fits were obtained using Prism (GraphPad Software). Buffer Conditions: 20 mM Hepes (pH 7.5), 10 mM MgCl2, 1 mM EGTA, 0.02% Brij35, 0.02 mg/mL BSA, 0.1 mM Na3VO4, 2 mM DTT, 1% DMSO.

[3] = tested on: CD69+B220+ cells; experiment: B cell activation assay (IgD-stimulated splenocytes, CD69+B220+ cells by FACS); format: cell-based; settings: IgD 3 μg/mL, 4 h; for CD69 @ 100 nM (% Inh): 100 nM compound
Summary of the method: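 Mouse splenocytes (female, ~2 months), red cells lysed, at 10^6 cells/mL, pretreated 30 min at 37 °C with 100 nM compound, then anti-IgD 3 μg/mL for 4 h. Read as CD69+B220+ cells as percentage of live B220+ cells by flow cytometry.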

[4] = target: T3, PI3Kα (Homo sapiens, UniProt P42336); experiment: PI3Kα isoform profiling (PI3Kδ protocol); format: biochemical; settings: for IC50: 10 dose IC50; for PI3Kα @ 0.3 μM (% Inh): 0.3 μM compound
T3 construct: purchased Reaction Biology Corporation
From the text: PI3Kδ assay: The PIP3 product is detected by displacement of biotin-PIP3 from an energy transfer complex consisting of Europium labeled anti-GST monoclonal antibody, a GST-tagged pleckstrin homology (PH) domain, biotinylated PIP3 and Streptavidin-Allophycocyanin (APC). Excitation of Europium in the complex results in an energy transfer to the APC and a fluorescent emission at 665 nm. The PIP3 product formed by PI 3-Kinase(h) activity displaces biotin-PIP3 from the complex resulting in a loss of energy transfer and thus a decrease in signal. This is a 3-step reaction: First, the kinase reaction with PIP2 substrate is carried out in the presence of ATP (10 μM), and the reaction is quenched with stop Solution, and then finally detect by adding Detection Mixture followed by incubation (10 min). Reaction procedure: 1) Prepare substrate in freshly prepared Reaction Buffer. 2) Deliver kinase into the substrate solution and gently mix. 3) Deliver compounds in 100% DMSO (1 μM) into the kinase reaction mixture by Acoustic technology (Echo550; nanoliter range), incubate for 10 min at RT. 4) Deliver ATP into the reaction mixture to initiate the reaction. 5) Incubate for 30 min at 30° C. 6) Quench the reaction with Stop Solution. 7) Add Detection Mixture, and incubate for overnight. 8) Measure HTRF: Ex=320 nm, ratio of Em=615 nm and Em=665 nm. The emission ratio is converted into μM PIP3 production based on PIP3 standard curves. The nonlinear regression to obtain the standard curve and IC50 values are performed using Graphpad Prism software. Assay Buffer: HEPES 50 mM (pH7.0), NaN3 0.02%, BSA 0.01%, Orthovanadate 0.1 mM, 1% DMSO. Detection buffer: HEPES 10 mM (pH7.0), BSA 0.02%, KF 0.16 M, EDTA 4 mM. Substrate: 10 μM PIP2 substrate (PI(4,5)P2).
Compounds of the invention were profiled in a 10 dose IC50 panel against PI3Kα, PI3Kβ, and PI3Kγ kinases, provided by Reaction Biology Corporation, applied to the PI3Kδ protocol provided in Example B1.

T3 sequence (P42336 whole entry, canonical isoform): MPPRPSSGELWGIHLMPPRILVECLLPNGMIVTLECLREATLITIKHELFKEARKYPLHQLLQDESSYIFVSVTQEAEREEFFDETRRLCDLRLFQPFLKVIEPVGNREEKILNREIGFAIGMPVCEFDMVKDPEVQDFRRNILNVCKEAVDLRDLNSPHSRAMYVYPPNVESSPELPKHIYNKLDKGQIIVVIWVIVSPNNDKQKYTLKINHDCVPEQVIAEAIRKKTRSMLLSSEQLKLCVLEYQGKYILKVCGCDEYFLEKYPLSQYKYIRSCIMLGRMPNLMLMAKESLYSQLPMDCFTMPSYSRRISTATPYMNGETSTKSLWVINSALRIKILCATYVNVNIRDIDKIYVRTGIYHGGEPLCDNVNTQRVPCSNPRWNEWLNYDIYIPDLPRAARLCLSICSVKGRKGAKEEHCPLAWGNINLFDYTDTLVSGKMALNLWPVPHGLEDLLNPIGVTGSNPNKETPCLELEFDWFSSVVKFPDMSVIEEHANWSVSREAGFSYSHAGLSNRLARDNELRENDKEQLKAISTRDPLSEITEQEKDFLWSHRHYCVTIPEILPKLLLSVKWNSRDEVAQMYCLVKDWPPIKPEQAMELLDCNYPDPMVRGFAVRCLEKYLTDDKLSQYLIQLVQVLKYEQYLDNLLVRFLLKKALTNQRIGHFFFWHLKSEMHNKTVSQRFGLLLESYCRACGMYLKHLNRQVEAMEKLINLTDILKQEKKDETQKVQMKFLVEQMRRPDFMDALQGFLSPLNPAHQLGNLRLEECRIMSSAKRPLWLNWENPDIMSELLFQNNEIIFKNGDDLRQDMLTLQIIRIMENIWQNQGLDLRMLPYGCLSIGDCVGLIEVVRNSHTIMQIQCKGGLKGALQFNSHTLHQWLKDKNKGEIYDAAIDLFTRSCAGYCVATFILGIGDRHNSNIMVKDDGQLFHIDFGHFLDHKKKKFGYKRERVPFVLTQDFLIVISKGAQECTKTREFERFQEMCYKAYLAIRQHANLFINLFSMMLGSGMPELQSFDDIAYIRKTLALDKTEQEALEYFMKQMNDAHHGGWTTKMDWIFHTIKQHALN
T3 sequence (P27986 whole entry partner, canonical isoform): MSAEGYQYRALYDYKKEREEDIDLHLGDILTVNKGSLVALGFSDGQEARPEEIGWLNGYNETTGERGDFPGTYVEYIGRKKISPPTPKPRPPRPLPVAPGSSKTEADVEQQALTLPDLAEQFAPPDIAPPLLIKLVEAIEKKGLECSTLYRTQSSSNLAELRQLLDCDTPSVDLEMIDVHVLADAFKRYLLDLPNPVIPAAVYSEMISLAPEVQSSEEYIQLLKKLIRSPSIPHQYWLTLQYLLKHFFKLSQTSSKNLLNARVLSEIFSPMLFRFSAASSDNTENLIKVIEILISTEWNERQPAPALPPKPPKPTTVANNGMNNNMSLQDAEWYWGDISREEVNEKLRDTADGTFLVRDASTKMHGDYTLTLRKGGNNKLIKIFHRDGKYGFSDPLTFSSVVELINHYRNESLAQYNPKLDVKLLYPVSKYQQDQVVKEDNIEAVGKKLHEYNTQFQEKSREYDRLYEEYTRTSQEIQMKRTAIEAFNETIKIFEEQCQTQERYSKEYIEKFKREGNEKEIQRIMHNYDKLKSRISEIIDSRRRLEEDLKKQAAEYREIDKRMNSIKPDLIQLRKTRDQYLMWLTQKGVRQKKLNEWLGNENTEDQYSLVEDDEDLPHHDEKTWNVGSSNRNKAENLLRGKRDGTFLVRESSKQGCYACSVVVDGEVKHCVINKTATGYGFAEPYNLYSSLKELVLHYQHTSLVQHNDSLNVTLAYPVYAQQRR
T1 sequence (Q06187 whole entry): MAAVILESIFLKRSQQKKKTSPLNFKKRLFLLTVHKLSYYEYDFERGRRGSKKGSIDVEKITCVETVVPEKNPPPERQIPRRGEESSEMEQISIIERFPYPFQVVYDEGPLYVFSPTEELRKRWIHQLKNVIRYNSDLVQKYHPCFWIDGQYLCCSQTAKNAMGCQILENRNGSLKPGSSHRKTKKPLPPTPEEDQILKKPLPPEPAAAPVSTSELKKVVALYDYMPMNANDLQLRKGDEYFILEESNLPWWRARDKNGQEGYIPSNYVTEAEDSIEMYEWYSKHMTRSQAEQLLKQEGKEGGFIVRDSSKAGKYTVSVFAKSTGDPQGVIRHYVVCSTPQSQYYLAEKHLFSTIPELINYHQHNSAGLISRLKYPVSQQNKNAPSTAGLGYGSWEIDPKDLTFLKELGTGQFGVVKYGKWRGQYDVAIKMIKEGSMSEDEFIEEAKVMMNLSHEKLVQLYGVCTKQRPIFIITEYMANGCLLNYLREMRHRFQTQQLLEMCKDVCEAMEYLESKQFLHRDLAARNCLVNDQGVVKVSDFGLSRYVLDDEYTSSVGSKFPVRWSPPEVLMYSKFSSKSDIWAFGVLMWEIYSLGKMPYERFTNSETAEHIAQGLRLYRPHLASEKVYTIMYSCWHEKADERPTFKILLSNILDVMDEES

Compound	IC50 [1] [µM]	IC50 [2] [µM]	IC50 [4] [µM]	BTK @ 0.01 μM (% Inh) [1] [% Inh]	BTK @ 0.1 μM (% Inh) [1] [% Inh]	ITK @ 0.3 μM (% Inh) [2] [% Inh]	BTK @ 1 μM (% Inh) [1] [% Inh]	IC50 ([3]; Splenocyte, mouse splenocytes) [µM]	PI3Kα @ 0.3 μM (% Inh) [4] [% Inh]	ITK @ 0.3 μM (% Inh) ([2]; 0.3 µM)	PI3Kα @ 0.3 μM (% Inh) ([4]; 0.3 µM)	IC50 ([3]; mouse splenocytes) [µM]	CD69 @ 100 nM (% Inh) ([3]; mouse splenocytes)	IC50 ([3]; Mus musculus, Splenocyte) [µM]	CD69 @ 100 nM (% Inh) ([3]; mouse splenocytes, 0.1 µM)
Nc1ncnc2c1c(-c1cc(O)cc(F)c1)nn2C1Cc2ccccc2C1 [compound 3, 3-(4-amino-1-(2,3-dihydro-1H-inden-2-yl)-1H-pyrazolo[3,4-d]pyrimidin-3-yl)-5-fluorophenol]	0.0673	46.9	0.0201	–	–	–	–	–	–	–	–	–	77.66 ± 22.65 (n = 6) % Inh	0.183 ± 0.172	–
Nc1ncnc2c1c(-c1cc(O)c(F)c(F)c1)cn2C1Cc2ccccc2C1 [Compound No. 101, 5-[4-amino-7-(2,3-dihydro-1H-inden-2-yl)-7H-pyrrolo[2,3-d]pyrimidin-5-yl]-2,3-difluorophenol]	0.00247	–	0.12	78.34	94.7	−2.77	–	–	–	–	–	–	−12.35 ± 33.92 (n = 5) % Inh	–	–
COc1ccc(-c2nn(C3Cc4ccccc4C3)c3ncnc(N)c23)cc1O [Compound No. 68, 5-[4-amino-1-(2,3-dihydro-1H-inden-2-yl)-1H-pyrazolo[3,4-d]pyrimidin-3-yl]-2-methoxyphenol]	0.0843	–	0.014	–	54.54	−6.84	89.54	–	–	–	–	–	44.83 ± 29.77 (n = 6) % Inh	–	–
Nc1ncnc2c1c(-c1cc(O)c(F)c(C(F)(F)F)c1)nn2C1Cc2ccccc2C1 [Compound No. 102, 5-[4-amino-1-(2,3-dihydro-1H-inden-2-yl)-1H-pyrazolo[3,4-d]pyrimidin-3-yl]-2-fluoro-3-(trifluoromethyl)phenol]	> 1	–	0.0211	–	0.67	−5.59	9.91	0.191 ± 0.12	–	–	–	–	81.06 ± 20.76 (n = 7) % Inh	–	–
Nc1ncnc2c1c(-c1ccc(Cl)c(O)c1F)nn2C1Cc2ccccc2C1 [Compound No. 100, 3-[4-amino-1-(2,3-dihydro-1H-inden-2-yl)-1H-pyrazolo[3,4-d]pyrimidin-3-yl]-6-chloro-2-fluorophenol]	0.078	–	0.0701	17.5	52.22	112.3	–	–	–	–	–	–	27.39 ± 22.07 (n = 5) % Inh	–	–
Nc1ncnc2c1c(-c1cc(O)cc(F)c1)nn2C1CCc2ccccc2C1 (single isomer, unassigned) [6a, 3-(4-amino-1-(1,2,3,4-tetrahydronaphthalen-2-yl)-1H-pyrazolo[3,4-d]pyrimidin-3-yl)-5-fluorophenol]	0.0811	–	–	–	63.12	–	–	–	–	4.58	85.6	–	–	0.107 ± 0.0262	64.71 ± 19.01 (n = 6) % Inh
Nc1ncnc2c1c(-c1cc(O)cc(F)c1)nn2C1CCc2ccccc2C1 (single isomer, unassigned) [6b, 3-(4-amino-1-(1,2,3,4-tetrahydronaphthalen-2-yl)-1H-pyrazolo[3,4-d]pyrimidin-3-yl)-5-fluorophenol]	0.112	–	–	–	45.78	–	–	–	–	0.04	91.35	0.118 ± 0.104	–	–	68.73 ± 21.60 (n = 6) % Inh
Nc1ncnc2c1c(-c1ccc(Cl)c(O)c1)cn2C1Cc2ccccc2C1 [Compound No. 93, 5-[4-amino-7-(2,3-dihydro-1H-inden-2-yl)-7H-pyrrolo[2,3-d]pyrimidin-5-yl]-2-chlorophenol]	0.0008	–	0.0509	77.86	96.32	108.85	–	–	–	–	–	–	−19.68 ± 39.78 (n = 5) % Inh	–	–
Nc1ncnc2c1c(-c1ccc(F)c(O)c1)nn2C1CCc2ccccc2C1 (racemic) [Compound No. 26, 5-(4-amino-1-(1,2,3,4-tetrahydronaphthalen-2-yl)-1H-pyrazolo[3,4-d]pyrimidin-3-yl)-2-fluorophenol]	0.0106	–	–	–	–	2.15	–	–	53.79	–	–	–	–	–	–

Further lines, with some results ahead:

IC50 [1] [µM]	IC50 [2] [µM]	IC50 [4] [µM]	BTK @ 0.01 μM (% Inh) [1] [% Inh]	BTK @ 0.1 μM (% Inh) [1] [% Inh]	ITK @ 0.3 μM (% Inh) [2] [% Inh]	BTK @ 1 μM (% Inh) [1] [% Inh]	IC50 ([3]; Splenocyte, mouse splenocytes) [µM]	PI3Kα @ 0.3 μM (% Inh) [4] [% Inh]	ITK @ 0.3 μM (% Inh) ([2]; 0.3 µM)	PI3Kα @ 0.3 μM (% Inh) ([4]; 0.3 µM)	IC50 ([3]; mouse splenocytes) [µM]	Compound	CD69 @ 100 nM (% Inh) ([3]; mouse splenocytes)	IC50 ([3]; Mus musculus, Splenocyte) [µM]	CD69 @ 100 nM (% Inh) ([3]; mouse splenocytes, 0.1 µM)
0.258	–	–	–	38.26	−3.29	–	–	33.14	–	–	–	Nc1ncnc2c1c(-c1ccc3cc[nH]c3c1)nn2C1CCc2ccccc2C1 (racemic) [compound 18, 3-(1H-indol-6-yl)-1-(1,2,3,4-tetrahydronaphthalen-2-yl)-1H-pyrazolo[3,4-d]pyrimidin-4-amine]	13.22 ± 11.84 (n = 5) % Inh	–	–
0.0087	–	0.0565	–	–	−5.41	–	–	–	–	–	–	Nc1ncnc2c1c(-c1cc(O)c(Cl)c(Cl)c1)cn2C1Cc2ccccc2C1 [Compound No. 107, 5-[4-amino-7-(2,3-dihydro-1H-inden-2-yl)-7H-pyrrolo[2,3-d]pyrimidin-5-yl]-2,3-dichlorophenol]	−0.20 ± 16.10 (n = 3) % Inh	–	–
0.0801	–	–	12.09	50.43	−9.43	–	–	–	–	–	–	N#Cc1cc(-c2cn(C3Cc4ccccc4C3)c3ncnc(N)c23)cc(O)c1F [compound 115, 5-[4-amino-7-(2,3-dihydro-1H-inden-2-yl)-7H-pyrrolo[2,3-d]pyrimidin-5-yl]-2-fluoro-3-hydroxybenzonitrile]	44.51 ± 5.23 (n = 3) % Inh	–	–
0.0864	16.4	0.0201	–	–	–	–	–	–	–	–	–	Nc1ncnc2c1c(-c1cc(O)cc(F)c1)nn2C1CCc2ccccc2C1 (centres unmarked) [compound 6, 3-(4-amino-1-(1,2,3,4-tetrahydronaphthalen-2-yl)-1H-pyrazolo[3,4-d]pyrimidin-3-yl)-5-fluorophenol]	–	–	–
0.0174	> 100	0.539	–	68.24	17.1	–	–	50.6	–	–	–	C=CC(=O)N1CC(n2nc(-c3cc(O)cc(F)c3)c3c(N)ncnc32)Cc2cc(C)ccc21 (centres unmarked) [compound 31, 1-(3-(4-amino-3-(3-fluoro-5-hydroxyphenyl)-1H-pyrazolo[3,4-d]pyrimidin-1-yl)-6-methyl-3,4-dihydroquinolin-1(2H)-yl)prop-2-en-1-one]	–	–	–
